Source: ChEMBL document CHEMBL5131534, “Identification of 2-Pyridinylindole-Based Dual Antagonists of Toll-like Receptors 7 and 8 (TLR7/8)” (ACS Med Chem Lett, 2022)

Assays:
Toll-like receptor 7 = target: T1, Toll-like receptor 7 (Mus musculus, UniProt P58681); assay: Antagonist activity at gardiquimod stimulated TRL7 in mouse whole blood assessed as inhibition of IL-6 production by ELISA analysis; assay type: tissue-based
T1 sequence (P58681 whole entry): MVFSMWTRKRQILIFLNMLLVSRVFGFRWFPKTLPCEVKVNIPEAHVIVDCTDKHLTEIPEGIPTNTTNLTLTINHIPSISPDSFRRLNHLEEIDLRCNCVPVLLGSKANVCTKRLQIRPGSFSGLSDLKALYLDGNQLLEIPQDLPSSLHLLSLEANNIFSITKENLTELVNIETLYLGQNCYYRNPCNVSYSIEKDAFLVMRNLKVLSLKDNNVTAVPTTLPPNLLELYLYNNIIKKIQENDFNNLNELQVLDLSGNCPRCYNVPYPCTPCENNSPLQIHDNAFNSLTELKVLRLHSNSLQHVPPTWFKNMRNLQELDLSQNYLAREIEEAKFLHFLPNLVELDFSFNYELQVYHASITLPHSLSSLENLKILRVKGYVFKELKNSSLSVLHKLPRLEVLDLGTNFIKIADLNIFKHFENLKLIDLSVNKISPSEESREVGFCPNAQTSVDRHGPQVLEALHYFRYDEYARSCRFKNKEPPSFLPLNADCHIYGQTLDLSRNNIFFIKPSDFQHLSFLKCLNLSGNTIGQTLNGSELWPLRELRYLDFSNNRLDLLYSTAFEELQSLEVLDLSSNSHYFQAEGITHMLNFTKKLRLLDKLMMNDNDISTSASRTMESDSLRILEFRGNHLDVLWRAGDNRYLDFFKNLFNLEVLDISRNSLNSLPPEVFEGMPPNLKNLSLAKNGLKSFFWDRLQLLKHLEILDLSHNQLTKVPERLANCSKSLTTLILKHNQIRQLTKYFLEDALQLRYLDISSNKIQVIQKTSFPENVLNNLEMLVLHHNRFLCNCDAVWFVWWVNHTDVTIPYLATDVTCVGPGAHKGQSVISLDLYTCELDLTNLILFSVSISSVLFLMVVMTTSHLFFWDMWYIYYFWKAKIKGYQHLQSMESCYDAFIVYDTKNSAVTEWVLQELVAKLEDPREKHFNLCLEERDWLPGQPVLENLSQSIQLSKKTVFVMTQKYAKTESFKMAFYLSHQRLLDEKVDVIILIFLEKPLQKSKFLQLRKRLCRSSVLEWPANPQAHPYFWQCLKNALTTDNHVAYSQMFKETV

Mus musculus = assay: Anti-inflammatory activity against MRL/Ipr Systemic lupus erythematosus mouse model assessed as inhibition of anti-Sm/RNP Ab titer at 5 mg/kg, po administered for 8 weeks and measured 24 hrs post final dose relative to control; assay type: functional; set-up: scale not given: the % may be the effect or the level left; conditions: time 1368 hrs

## Cc1cc(-c2[nH]c3ccc(C4CCNCC4)cc3c2C(C)C)cc(C)n1
Toll-like receptor 7
  IC50: 0.3 nM
Mus musculus
  Activity: 74%
